Measured values taken from PubChem BioAssay AID850 (SRMLSC, 2007).
Activity calls are given as the source filed them. How the calls were made is not given here.

Key:
[1] = yeast lifespan-shortening chemical project counter-assay, dose-response inhibition of growth under permissive conditions (AID 850); details: Saccharomyces cerevisiae growth inhibition, permissive control, measured here: maximum growth inhibition, stronger effect = higher value;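 further: growth read as optical density after one day of incubation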
[2] = test system: Saccharomyces cerevisiae growth inhibition, permissive control; experiment: as above

| Compound | IC50 [2] | inhibition ([1]; at 50 µM) | also measured |
| --- | --- | --- | --- |
| COc1cc2c(cc1OC)CN(C(=O)CSc1nnc3scc(-c4ccccc4)n13)CC2 | > 100 µM (inactive) | – | inhibition ([1]; at 0.781 µM): 17.1% |
| O=C(O)CCSc1nnc(-c2ccccc2)n1-c1ccccc1 | > 100 µM (inactive) | – | inhibition ([1]; at 1.563 µM): 15.8% |
| CCOC(=O)N1CCN(C(=O)Cn2nc(C)c3sc4ccccc4c3c2=O)CC1 | > 100 µM (inactive) | – | inhibition ([1]; at 25 µM): 12.1% |
| O=C(O)c1cc2c(s1)-c1ccccc1CC2 | 50.5 µM | 47.3% | – |
| COc1ccc(-c2nnc3c4ccccc4c(C)nn23)cc1 | > 100 µM (inactive) | – | inhibition ([1]; at 1.563 µM): 11.6% |
| Oc1ccc(N=Nc2cccc(Cl)c2)cc1C=Nc1ccc(N2CCOCC2)cc1 | > 100 µM (inactive) | – | inhibition ([1]; at 12.5 µM): 2.01% |
| c1ccc2c(c1)oc1c(N3CCOCC3)ncnc12 | > 100 µM (inactive) | – | inhibition ([1]; at 25 µM): 19.7% |
| Cc1cc(C)c2c(N=NN3CCOCC3)[nH]nc2n1 | > 100 µM (inactive) | 5.41% | – |
| CCOC(=O)c1c(/N=C/c2cc([N+](=O)[O-])ccc2O)sc(C)c1C | 39.9 µM | – | inhibition ([1]; at 25 µM): 52.7% |
| Cn1c(SCC(=O)N/N=C/c2ccc([N+](=O)[O-])s2)nnc1-c1ccc(Cl)cc1 | 29.7 µM | 99.2% | – |
| COc1ccc(-c2[nH]ncc2-c2ccc(Cl)cc2)c(O)c1 | > 100 µM (inactive) | – | inhibition ([1]; at 0.781 µM): 14.4% |
| CCCC(=O)NC(c1cccs1)c1cc([N+](=O)[O-])c2cccnc2c1O (configuration not stated) | 24.1 µM | 96.5% | – |
| O=C1C=C(c2ccc(Cl)cc2)C(=O)N1Nc1ccccc1 | 6.75 µM | 99.4% | – |
| Oc1c(I)cc(I)c2cccnc12 | 17.1 µM | 74.8% | – |
| Cn1cccc1C(=O)NC(=O)CSc1cccc[n+]1[O-] | 24.3 µM | 97.5% | – |
| Cc1cccc(NC(=O)CC2SC(=O)N(c3ccccc3)C2=O)c1 (configuration not stated) | > 100 µM (inactive) | -6.43% | – |
| CCOC(=O)c1c(NC(=O)C(C)Sc2cccc[n+]2[O-])sc2c1CCN(Cc1ccccc1)C2 (configuration not stated) | 16.3 µM | 98.6% | – |
| CC1(C)CC(=NOC(=O)c2ccccc2)CC(C)(C)N1O | 14 µM | 98.6% | – |
| COC1=C(c2ccccc2)C(=O)c2ccccc2C1=O | 19.8 µM | 96.4% | – |
| CCCc1ccc(OCC(=O)NNC(=S)NC(=O)c2ccco2)cc1 | 10.6 µM | 98.8% | – |
| CCOC(=O)c1c(N)sc(C(O)(C(F)(F)F)C(F)(F)F)c1-c1ccc(Cl)cc1 | > 100 µM (inactive) | – | inhibition ([1]; at 0.781 µM): 7.92% |

| Compound | IC50 [2] | inhibition ([1]; at 50 µM) | also measured |
| --- | --- | --- | --- |
| Cc1cc(C)c2c(=O)n(CC(=O)N3CCC(Cc4ccccc4)CC3)sc2n1 | > 100 µM (inactive) | – | inhibition ([1]; at 0.391 µM): 6.81% |
| C(=N\c1ncnc2sccc12)/NOCc1ccccc1 | 7.68 µM | 98.6% | – |
| O=C(O)c1ccc(SCc2cnc(Cl)s2)cc1 | 4.91 µM | 99.2% | – |
| O=C1C(=O)c2ccccc2-c2ccccc21 | 1.01 µM | 99.2% | – |
| CCCCCCCCCCn1c2c(c(=N)c3c1CCC3)CCC2 | 12 µM | 100% | – |
| Cc1ccc(CNC(=O)c2ccc(Cn3nc(C)c(Cl)c3C)o2)cc1 | 17.2 µM | 99.8% | – |
| CC(NC(=O)Nc1ccc(Cl)cc1)C(c1cccs1)N1CCOCC1 (configuration not stated) | > 100 µM (inactive) | – | inhibition ([1]; at 0.781 µM): 8.7% |
| Cc1ccc(-n2c(C)cc(C(=O)COC(=O)c3ccc[nH]c3=O)c2C)cc1C | 10.8 µM | 99.6% | – |
| COC(=O)Cc1cc(=O)n(-c2nc3ccccc3[nH]2)[nH]1 | 45.1 µM | 64.1% | – |
| Clc1ccc(N/N=C/c2cccnc2)cc1 | 19 µM | – | inhibition ([1]; at 25 µM): 78.3% |
| CCN1/C(=C/C=C/C=C/c2sc3ccccc3[n+]2CC)Sc2ccccc21 | 11.3 µM | – | inhibition ([1]; at 25 µM): 87.5% |
| Cc1ccc(Nc2cc(C)nn2-c2nc(C)cc(=O)[nH]2)cc1 | 0.708 µM | – | inhibition ([1]; at 6.25 µM): 96.6% |
| Cc1cc(O)c(/C=N/Nc2cccc(Cl)c2)c(=O)o1 | 26.7 µM | 80.8% | – |
| O=C1Cc2ccccc2C(=O)N1CCc1ccccc1 | > 100 µM (inactive) | – | inhibition ([1]; at 0.781 µM): 20.7% |
| O/N=C/c1ccc(OCc2ccccc2)c(Br)c1 | > 100 µM (inactive) | – | inhibition ([1]; at 0.781 µM): 11.2% |
| O=C(COc1ccccc1)NNC(=S)NC(=O)c1ccc(Cl)cc1Cl | 25.7 µM | 84.4% | – |
| c1ccc(-c2nc3nonc3nc2-c2ccccc2)cc1 | > 100 µM (inactive) | – | inhibition ([1]; at 1.563 µM): -1.92% |
| Cc1ccc2[nH]c3c(c2c1)CCc1cn[nH]c1-3 | 14.7 µM | 98.6% | – |
| CCCc1cc(C(=O)NC2CCCCC2)no1 | > 100 µM (inactive) | – | inhibition ([1]; at 0.391 µM): 10.3% |
| Cc1csc(NC(=O)Cc2coc3cc(C)c(C(C)C)cc23)n1 | > 100 µM (inactive) | – | inhibition ([1]; at 3.125 µM): 10.1% |
